PubChem BioAssay AID1576 (EPA DSSTox, 2009)
Active and inactive are the calls of the source.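 How the source made its calls: active means chemicals shown by follow-up kinetic tests to compete for rat estrogen receptor sites, with a measured inhibition constant; inconclusive means some binding seen but constant unmeasurable owing to poor solubility; inactive means no binding up to top dose, or binding unconfirmed.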

These molecules were tested against Estrogen receptor (Rattus norvegicus) (UniProt P06211) (assay: DSSTox (KIERBL) EPA Estrogen Receptor Ki Binding Study (Laws et al.) Database). Settings: Rat uterine cytosol ER, 3H-estradiol competitive binding.
Sequence of Estrogen receptor (Rattus norvegicus) (P06211 whole entry, looked up): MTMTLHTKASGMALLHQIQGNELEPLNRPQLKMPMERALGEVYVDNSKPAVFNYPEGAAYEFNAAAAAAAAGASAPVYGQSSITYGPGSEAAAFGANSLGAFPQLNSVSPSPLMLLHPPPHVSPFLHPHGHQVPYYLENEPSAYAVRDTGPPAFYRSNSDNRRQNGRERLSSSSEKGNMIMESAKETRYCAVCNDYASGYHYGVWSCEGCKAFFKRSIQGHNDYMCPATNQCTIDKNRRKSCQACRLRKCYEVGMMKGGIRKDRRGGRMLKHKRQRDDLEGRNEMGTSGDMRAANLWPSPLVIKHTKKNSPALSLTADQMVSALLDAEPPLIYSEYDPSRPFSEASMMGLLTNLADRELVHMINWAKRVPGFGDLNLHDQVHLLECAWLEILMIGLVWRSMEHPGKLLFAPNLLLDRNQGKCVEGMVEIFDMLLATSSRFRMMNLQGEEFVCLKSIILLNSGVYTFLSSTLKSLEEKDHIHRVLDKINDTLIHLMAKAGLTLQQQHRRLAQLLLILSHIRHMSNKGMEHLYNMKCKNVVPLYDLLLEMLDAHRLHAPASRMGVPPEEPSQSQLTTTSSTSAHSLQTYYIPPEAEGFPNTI
Description: This study was conducted by EPA researchers to evaluate the validity of the rat uterine cytosolic (RUC) estrogen receptor (ER) competitive binding assay for use in the Endocrine Disruption Screening Program (EDSP). The assay measures the ability of radiolabeled 17-beta-estradiol (3H-E2) to bind with RUC ER in the presence of increasing concentrations of a test chemical. The goal is to employ this in vitro assay as a 1st tier screening tool for assessing the potential of structurally diverse environmental chemicals to bind to the ER, as well as to support research efforts to develop computational models to predict ER binding. A distinguishing feature of the present study was the use of secondary experimental analysis of binding curves and determination of Ki values to confirm that measured IC50 values corresponded to true positive results. The study concluded that a number of experimental conditions can confound interpretation of IC50 values obtained from the RUC ER-binding assay data and lead to false positive results. In particular, some chemical treatments likely alter the stability of the assay by changing the buffer pH, denaturing ER, or disrupting the ER binding kinetics. […] The chemicals used in this study were selected as part of a validation test for two Quantitative Structure-Activity Relationship (QSAR) models designed to predict ER binding [Fed. Reg. 67(250), 79618, Dec. 30, 2002]. Several hundred chemicals were initially screened, including approximately 100 chemicals selected from among the High Production Volume (HPV) chemicals included in EPA's Toxic Substances Control Act (TSCA) inventory that were predicted to be positive for ER binding, with the rest selected at random from the TSCA inventory. All chemicals were initially tested in ER competitive binding assays by Battelle Pacific Northwest Laboratories, Richland, Washington [EPA Contract Number 68-W-99-033, Task 6]. Approximately 50 chemicals produced binding curves that: (1) strongly implied competitive inhibition of ER binding, or (2) produced partial curves or irregular (non-sigmoid) binding curves. These chemicals were further evaluated in an ER competitive binding assay with secondary analysis to confirm true competitive inhibition and to determine an experimental Ki [U.S. EPA Contract 3D-5967-NTEX]. The results of RUC ER screening for these 50 structurally diverse chemicals, for which secondary confirmatory analyses were performed, were published in the Main Citation (Laws et al., 2006, Tox. Sci. 94:46-56). The remaining 228 chemicals were designated as non-binders based on initial screening studies.
The DSSTox KIERBL data files include all published IC50 and Ki experimental results for the 50 chemicals included in the Main Citation (Laws et al., 2006) (denoted Group 1), as well as previously unpublished results for an additional 228 structually diverse TSCA chemicals for which no ER binding was observed (denoted Group 2. IC50 values were determined for 32 compounds in Group 1 as the concentration of a test chemical that inhibits the maximal specific binding of 0.33 nM radiolabeled (3H) 17-beta-estradiol (E2) to rat uterine cytosolic (RUC) estrogen receptor (ER) by 50%. Confirmation of binding status was accomplished by secondary analysis using Lineweaver-Burk plots and slope replots to determine true competitive inhibition and an experimental Ki value. Ki is the inhibition constant for the test chemical, i.e., the concentration of the test chemical that will bind to half the binding sites at equilibrium (displacing half of the probe-bound receptors), in the absence of radioligand or other competitors. Ki reported as Mean +/- Standard Error from n=2 experiments (see StandardError_Ki_n2) and is determined from Lineweaver-Burk plots over the tested dose range (TestedRange_microM). For more information see BindingCurve_Group and BindingCurve_Details. […]

Compound	outcome
CCCCCCCCCCCCCCCCCCN	inactive; none
Cc1c(C)c2c(c(C)c1O)CC[C@@](C)(CCC[C@H](C)CCC[C@H](C)CCCC(C)C)O2	inactive; none
Cc1cc(-n2nc3ccc(Cl)cc3n2)c(O)c(C(C)(C)C)c1	inactive; none
OCCOc1ccc(OCCO)cc1	inactive; none
CCC(=O)O	inactive; none
Cc1ccc([N+](=O)[O-])c(C)c1	inactive; none
O=C(O)C1CCC(C(=O)O)CC1 (configuration not stated)	inactive; none
CN(C)c1ccc(C(=C2C=CC(=Nc3ccccc3)c3ccccc32)c2ccc(N(C)C)cc2)cc1	inactive; none
COC(=O)c1ccccc1S(=O)(=O)NC(=O)N(C)c1nc(C)nc(OC)n1	inactive; none
C=CCCCCCCCCC=O	inactive; incomplete
CCCCCCCCCCCCCCBr	inactive; none
CC(=O)c1ccc(O)cc1	inactive; none
CCCCCCC1CCC(=O)O1 (configuration not stated)	inactive; none
CCN(CC)c1ccc(C(=C2C=CC(=[N+](CC)CC)C=C2)c2ccc(N(CC)CC)cc2)cc1	inactive; none
COc1nc(C)nc(NC(=O)NS(=O)(=O)c2ccccc2Cl)n1	inactive; none
C[Si]1(C)N[Si](C)(C)N[Si](C)(C)N1	inactive; incomplete
C=C(C)C(=O)OCCOCC	inactive; none
